{"source": "ChEMBL document CHEMBL1649335", "about": "“Discovery of {1-[4-(2-{hexahydropyrrolo[3,4-c]pyrrol-2(1H)-yl}-1H-benzimidazol-1-yl)piperidin-1-yl]cyclooctyl}methanol, systemically potent novel non-peptide agonist of nociceptin/orphanin FQ receptor as analgesic for the treatment of neuropathic pain: design, synthesis, and structure-activity …” (Bioorg Med Chem, 2010)", "key": {"[1]": {"assay": "Drug level Sprague-Dawley rat plasma at 10 mg/kg, sc after […]", "assay_type": "ADME, organism-based", "design": "dose 10 mg/kg, route subcutaneous", "details": "read-out: Drug uptake"}, "[2]": {"assay": "Drug level Sprague-Dawley rat plasma at 10 mg/kg, sc after 0.5 hrs", "assay_type": "ADME, organism-based", "design": "dose 10 mg/kg, route subcutaneous", "details": "read-out: Drug uptake"}, "Rattus norvegicus [3]": {"tested_on": "Rattus norvegicus", "assay": "Antiallodynic activity against von Frey hair mechanically stimulated neuropathic pain in sc dosed Sprague-Dawley rat assessed as increase of response threshold after 30 mins", "assay_type": "functional", "details": "0.5 h"}, "Rattus norvegicus [4]": {"tested_on": "Rattus norvegicus", "assay": "Antiallodynic activity against von Frey hair mechanically stimulated neuropathic pain in sc dosed Sprague-Dawley rat assessed as assessed as minimum effective dose to increase of response threshold after 1 hr", "assay_type": "functional"}, "Rattus norvegicus [5]": {"tested_on": "Rattus norvegicus", "assay": "Antiallodynic activity against von Frey hair mechanically stimulated neuropathic pain in intrathecally dosed Sprague-Dawley rat assessed as increase of response threshold per site after 1 hr", "assay_type": "functional"}, "Rattus norvegicus [6]": {"tested_on": "Rattus norvegicus", "assay": "Antiallodynic activity against von Frey hair mechanically stimulated neuropathic pain in icv dosed Sprague-Dawley rat assessed as increase of response threshold per site after 20 mins", "assay_type": "functional"}, "Rattus norvegicus [7]": {"tested_on": "Rattus norvegicus", "assay": "Antiallodynic activity against von Frey hair mechanically stimulated neuropathic pain in Sprague-Dawley rat assessed as increase of response threshold at 30 mg/kg, sc after 30 mins relative to control", "assay_type": "functional", "details": "route subcutaneous"}, "Rattus norvegicus [8]": {"tested_on": "Rattus norvegicus", "assay": "Antiallodynic activity against von Frey hair mechanically stimulated neuropathic pain in Sprague-Dawley rat assessed as effect on allodynia in contralateral paw at 5.5 to 170 nmol/site, icv after 1 hr", "assay_type": "functional, organism-based"}, "[9]": {"target": "Voltage-gated inwardly rectifying potassium channel KCNH2 (Homo sapiens, UniProt Q12809)", "sequence (Q12809 whole entry)": "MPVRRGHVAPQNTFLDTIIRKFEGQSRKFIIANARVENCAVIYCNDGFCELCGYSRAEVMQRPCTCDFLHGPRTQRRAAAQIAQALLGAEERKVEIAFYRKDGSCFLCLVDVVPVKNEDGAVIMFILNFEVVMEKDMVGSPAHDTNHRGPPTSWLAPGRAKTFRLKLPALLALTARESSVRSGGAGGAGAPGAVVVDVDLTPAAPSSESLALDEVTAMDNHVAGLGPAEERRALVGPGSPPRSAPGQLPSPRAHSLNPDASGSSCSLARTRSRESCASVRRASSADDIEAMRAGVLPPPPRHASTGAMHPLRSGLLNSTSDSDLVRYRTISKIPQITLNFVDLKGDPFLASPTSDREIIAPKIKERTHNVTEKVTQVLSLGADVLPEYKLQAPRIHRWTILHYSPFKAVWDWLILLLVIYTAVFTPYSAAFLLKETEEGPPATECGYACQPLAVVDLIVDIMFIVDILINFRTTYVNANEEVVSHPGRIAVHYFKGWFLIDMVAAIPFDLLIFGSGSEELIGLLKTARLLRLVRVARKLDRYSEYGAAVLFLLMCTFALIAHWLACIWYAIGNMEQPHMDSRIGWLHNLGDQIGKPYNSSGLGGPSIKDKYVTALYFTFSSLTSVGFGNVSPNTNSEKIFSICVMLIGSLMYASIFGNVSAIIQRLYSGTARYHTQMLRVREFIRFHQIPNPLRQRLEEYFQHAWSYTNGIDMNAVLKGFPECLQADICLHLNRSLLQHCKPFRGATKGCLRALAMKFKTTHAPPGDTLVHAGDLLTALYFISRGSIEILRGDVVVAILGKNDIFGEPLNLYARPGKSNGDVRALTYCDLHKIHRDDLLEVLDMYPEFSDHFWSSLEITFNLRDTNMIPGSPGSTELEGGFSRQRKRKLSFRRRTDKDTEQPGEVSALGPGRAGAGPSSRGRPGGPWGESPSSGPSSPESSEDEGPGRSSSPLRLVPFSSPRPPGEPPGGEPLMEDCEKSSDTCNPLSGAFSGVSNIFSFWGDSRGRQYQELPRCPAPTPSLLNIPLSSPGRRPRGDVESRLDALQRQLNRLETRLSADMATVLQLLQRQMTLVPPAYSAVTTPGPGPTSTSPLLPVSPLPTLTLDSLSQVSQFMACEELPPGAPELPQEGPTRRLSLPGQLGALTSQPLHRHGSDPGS", "assay": "Displacement of [3H]dofetilide from human ERG expressed in HEK293 cells after 60 mins by liquid scintillation counting", "assay_type": "cell-based"}, "[10]": {"target": "Adrenergic receptor alpha-1 (Rattus norvegicus) (UniProt P15823+P23944+P43140)", "assay": "Inhibition of rat alpha1 adrenoceptor at 1 uM relative to control"}, "[11]": {"target": "Beta-1 adrenergic receptor (Homo sapiens) (UniProt P08588)", "sequence (P08588 whole entry, looked up)": "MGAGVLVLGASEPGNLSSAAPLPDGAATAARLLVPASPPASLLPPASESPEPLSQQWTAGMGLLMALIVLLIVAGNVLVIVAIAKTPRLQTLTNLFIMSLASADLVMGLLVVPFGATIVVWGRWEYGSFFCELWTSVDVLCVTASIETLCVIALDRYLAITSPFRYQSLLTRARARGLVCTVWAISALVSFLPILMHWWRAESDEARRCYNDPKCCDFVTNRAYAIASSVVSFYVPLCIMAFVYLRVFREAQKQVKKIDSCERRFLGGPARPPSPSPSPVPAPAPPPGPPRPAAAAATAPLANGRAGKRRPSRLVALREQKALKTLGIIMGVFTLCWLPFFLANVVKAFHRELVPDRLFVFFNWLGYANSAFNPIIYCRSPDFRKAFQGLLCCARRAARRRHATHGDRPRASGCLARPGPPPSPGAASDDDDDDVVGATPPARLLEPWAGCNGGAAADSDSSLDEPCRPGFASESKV", "assay": "Inhibition of human beta1 adrenoceptor at 1 uM relative to control"}, "[12]": {"target": "Beta-2 adrenergic receptor (Homo sapiens) (UniProt P07550)", "sequence (P07550 whole entry, looked up)": "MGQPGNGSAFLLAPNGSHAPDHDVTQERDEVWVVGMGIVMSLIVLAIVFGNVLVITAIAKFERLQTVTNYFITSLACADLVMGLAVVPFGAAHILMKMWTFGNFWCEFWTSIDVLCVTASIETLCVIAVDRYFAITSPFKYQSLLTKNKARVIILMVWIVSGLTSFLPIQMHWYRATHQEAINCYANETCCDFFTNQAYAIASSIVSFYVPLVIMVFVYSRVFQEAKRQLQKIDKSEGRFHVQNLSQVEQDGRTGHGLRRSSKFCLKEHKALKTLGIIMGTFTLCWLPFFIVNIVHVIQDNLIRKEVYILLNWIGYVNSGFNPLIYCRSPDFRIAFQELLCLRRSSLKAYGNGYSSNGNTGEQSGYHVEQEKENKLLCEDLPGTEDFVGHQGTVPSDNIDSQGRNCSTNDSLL", "assay": "Inhibition of human beta2 adrenoceptor at 1 uM relative to control"}, "[13]": {"target": "Sodium-dependent noradrenaline transporter (Homo sapiens) (UniProt P23975)", "assay": "Inhibition of human norepinephrine transporter at 1 uM relative to control"}, "[14]": {"target": "Type-1 angiotensin II receptor (Homo sapiens) (UniProt P30556)", "sequence (P30556 whole entry)": "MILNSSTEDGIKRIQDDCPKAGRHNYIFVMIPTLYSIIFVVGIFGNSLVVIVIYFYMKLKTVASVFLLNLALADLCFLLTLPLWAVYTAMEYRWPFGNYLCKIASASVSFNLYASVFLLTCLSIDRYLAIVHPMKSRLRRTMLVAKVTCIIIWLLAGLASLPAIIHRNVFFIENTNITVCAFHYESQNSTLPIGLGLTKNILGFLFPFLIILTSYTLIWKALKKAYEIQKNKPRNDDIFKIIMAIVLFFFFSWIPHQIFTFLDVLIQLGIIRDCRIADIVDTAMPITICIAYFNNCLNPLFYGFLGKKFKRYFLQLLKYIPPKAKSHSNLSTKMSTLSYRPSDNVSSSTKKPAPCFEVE", "assay": "Inhibition of human angiotensin 2 AT1 receptor at 1 uM relative to control"}, "[15]": {"target": "Cannabinoid receptor 1 (Homo sapiens) (UniProt P21554)", "sequence (P21554 whole entry)": "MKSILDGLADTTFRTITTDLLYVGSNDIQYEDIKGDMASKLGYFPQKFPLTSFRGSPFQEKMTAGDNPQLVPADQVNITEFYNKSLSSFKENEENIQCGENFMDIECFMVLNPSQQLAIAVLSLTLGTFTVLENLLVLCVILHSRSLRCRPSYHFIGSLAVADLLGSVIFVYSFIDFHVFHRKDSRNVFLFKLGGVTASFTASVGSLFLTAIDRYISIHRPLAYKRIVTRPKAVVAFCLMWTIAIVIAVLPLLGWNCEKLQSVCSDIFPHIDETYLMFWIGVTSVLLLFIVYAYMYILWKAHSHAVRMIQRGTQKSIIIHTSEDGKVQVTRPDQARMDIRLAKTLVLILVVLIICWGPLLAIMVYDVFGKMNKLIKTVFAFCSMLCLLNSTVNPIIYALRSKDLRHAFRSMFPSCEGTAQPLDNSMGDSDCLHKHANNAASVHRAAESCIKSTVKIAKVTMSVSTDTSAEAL", "assay": "Inhibition of human cannabinoid CB1 receptor at 1 uM relative to control"}, "[16]": {"target": "D(3) dopamine receptor (Homo sapiens) (UniProt P35462)", "sequence (P35462 whole entry)": "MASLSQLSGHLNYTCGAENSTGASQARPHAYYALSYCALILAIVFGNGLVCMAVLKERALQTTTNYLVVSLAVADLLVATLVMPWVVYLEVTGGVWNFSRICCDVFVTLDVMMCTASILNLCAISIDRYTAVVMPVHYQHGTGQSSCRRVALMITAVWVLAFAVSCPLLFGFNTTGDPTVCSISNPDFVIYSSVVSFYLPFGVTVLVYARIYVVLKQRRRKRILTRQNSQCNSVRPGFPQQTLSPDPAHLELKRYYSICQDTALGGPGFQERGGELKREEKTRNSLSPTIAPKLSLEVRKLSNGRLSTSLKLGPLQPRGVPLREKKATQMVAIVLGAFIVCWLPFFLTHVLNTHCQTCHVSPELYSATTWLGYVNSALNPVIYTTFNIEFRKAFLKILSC", "assay": "Inhibition of human dopamine D3 receptor at 1 uM relative to control"}, "[17]": {"target": "D(4) dopamine receptor (Homo sapiens) (UniProt P21917)", "sequence (P21917 whole entry)": "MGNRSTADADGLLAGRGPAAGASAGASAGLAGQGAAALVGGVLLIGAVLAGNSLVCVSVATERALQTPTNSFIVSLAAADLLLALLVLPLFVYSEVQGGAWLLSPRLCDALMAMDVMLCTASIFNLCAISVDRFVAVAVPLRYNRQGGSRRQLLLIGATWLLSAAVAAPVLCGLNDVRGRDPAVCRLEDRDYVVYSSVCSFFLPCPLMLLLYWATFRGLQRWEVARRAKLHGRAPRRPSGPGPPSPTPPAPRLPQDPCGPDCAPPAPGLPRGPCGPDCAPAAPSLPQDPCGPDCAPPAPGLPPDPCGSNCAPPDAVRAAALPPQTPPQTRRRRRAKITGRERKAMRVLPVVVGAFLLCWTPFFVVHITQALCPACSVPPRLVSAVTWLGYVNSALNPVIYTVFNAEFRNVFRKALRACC", "assay": "Inhibition of human dopamine D4.4 receptor at 1 uM relative to control"}, "Rattus norvegicus [18]": {"species_on_record": "Rattus norvegicus", "assay": "Inhibition of rat kainate receptor at 1 uM relative to control"}, "Rattus norvegicus [19]": {"species_on_record": "Rattus norvegicus", "assay": "Inhibition of rat choline transporter at 1 uM relative to control"}, "Homo sapiens": {"species_on_record": "Homo sapiens", "assay": "Inhibition of human muscle-type nicotinic acetylcholine receptor at 1 uM relative to control"}, "[20]": {"target": "5-hydroxytryptamine receptor 2A (Homo sapiens) (UniProt P28223)", "sequence (P28223 whole entry)": "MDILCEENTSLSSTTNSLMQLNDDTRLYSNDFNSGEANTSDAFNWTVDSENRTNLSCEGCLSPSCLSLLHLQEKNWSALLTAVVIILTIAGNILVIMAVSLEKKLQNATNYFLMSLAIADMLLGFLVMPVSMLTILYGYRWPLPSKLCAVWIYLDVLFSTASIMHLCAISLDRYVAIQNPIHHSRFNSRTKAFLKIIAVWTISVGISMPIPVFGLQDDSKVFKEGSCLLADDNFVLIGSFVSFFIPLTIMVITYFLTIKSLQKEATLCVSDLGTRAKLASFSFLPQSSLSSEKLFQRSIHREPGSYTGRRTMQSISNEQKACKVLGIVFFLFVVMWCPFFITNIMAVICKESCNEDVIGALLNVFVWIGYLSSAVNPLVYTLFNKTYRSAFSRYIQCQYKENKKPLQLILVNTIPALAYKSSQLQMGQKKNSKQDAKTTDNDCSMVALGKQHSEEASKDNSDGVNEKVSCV", "assay": "Inhibition of human 5-HT2A receptor at 1 uM relative to control"}, "[21]": {"target": "Estrogen receptor (Homo sapiens) (UniProt P03372)", "sequence (P03372 whole entry)": "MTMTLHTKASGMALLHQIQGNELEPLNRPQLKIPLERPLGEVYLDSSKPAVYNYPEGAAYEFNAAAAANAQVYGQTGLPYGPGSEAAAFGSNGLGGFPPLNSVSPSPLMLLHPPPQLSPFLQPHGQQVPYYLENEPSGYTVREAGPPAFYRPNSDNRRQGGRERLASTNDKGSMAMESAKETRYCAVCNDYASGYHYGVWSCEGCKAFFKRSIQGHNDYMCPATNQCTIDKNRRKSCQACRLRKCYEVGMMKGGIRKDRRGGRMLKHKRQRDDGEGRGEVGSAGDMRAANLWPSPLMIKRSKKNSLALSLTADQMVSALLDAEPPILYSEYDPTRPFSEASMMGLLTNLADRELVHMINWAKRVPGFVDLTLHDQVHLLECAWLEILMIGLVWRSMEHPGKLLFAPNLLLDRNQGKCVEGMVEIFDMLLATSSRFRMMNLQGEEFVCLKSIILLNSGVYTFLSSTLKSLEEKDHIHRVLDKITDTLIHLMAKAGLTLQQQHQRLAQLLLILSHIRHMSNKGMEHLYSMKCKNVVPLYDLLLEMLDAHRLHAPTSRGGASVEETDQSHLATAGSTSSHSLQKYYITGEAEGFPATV", "assay": "Inhibition of human estrogen receptor beta at 1 uM relative to control"}, "[22]": {"target": "L-type calcium channel, verapamil site (Rattus norvegicus, UniProt P22002+P27732+Q02485)", "assay": "Inhibition of rat L-type calcium channel verapamil site at 1 uM relative to control"}, "Rattus norvegicus [23]": {"species_on_record": "Rattus norvegicus", "assay": "Inhibition of rat K+V channel at 1 uM relative to control"}, "Rattus norvegicus [24]": {"species_on_record": "Rattus norvegicus", "assay": "Stimulation of rat adenylate cyclase at 1 uM relative to basal activity"}, "in vitro": {"assay": "in vitro", "details": "human, liver microsomes"}}, "note": "The source made the active and inactive calls.", "data": [{"molecule": "OCC1(N2CCC(n3c(N4CC5CNCC5C4)nc4ccccc43)CC2)CCCCCCC1", "note": "(configuration not stated)", "values": [{"measurement": "concentration at […]", "setting": "[1]", "result": 504, "unit": "ng/mL"}, {"measurement": "concentration at 0.5 h", "setting": "[2]", "result": 600, "unit": "ng/mL"}, {"measurement": "ED50", "setting": "Rattus norvegicus [3]", "result": 26.8, "unit": "mg/kg"}, {"measurement": "MED", "setting": "Rattus norvegicus [4]", "result": 10, "unit": "mg/kg"}, {"measurement": "Activity", "setting": "Rattus norvegicus [5]", "result": "Dose-dependent effect"}, {"measurement": "ED50", "setting": "Rattus norvegicus [5]", "result": ">170", "unit": "nmol"}, {"measurement": "ED50", "setting": "Rattus norvegicus [6]", "result": 170, "unit": "nmol"}, {"measurement": "Activity", "setting": "Rattus norvegicus [7]", "result": 57.6, "unit": "%"}, {"measurement": "Activity", "setting": "Rattus norvegicus [8]", "result": "inactive"}, {"measurement": "Ki", "setting": "[9]", "result": 3.7, "unit": "µM"}, {"measurement": "inhibition", "setting": "[10]", "result": 16, "unit": "%"}, {"measurement": "inhibition", "setting": "[11]", "result": "< 10", "unit": "%"}, {"measurement": "inhibition", "setting": "[12]", "result": 53, "unit": "%"}, {"measurement": "inhibition", "setting": "[13]", "result": "< 10", "unit": "%"}, {"measurement": "inhibition", "setting": "[14]", "result": "< 10", "unit": "%"}, {"measurement": "inhibition", "setting": "[15]", "result": 18, "unit": "%"}, {"measurement": "inhibition", "setting": "[16]", "result": "< 10", "unit": "%"}, {"measurement": "inhibition", "setting": "[17]", "result": "< 10", "unit": "%"}, {"measurement": "inhibition", "setting": "Rattus norvegicus [18]", "result": 32, "unit": "%"}, {"measurement": "inhibition", "setting": "Rattus norvegicus [19]", "result": 11, "unit": "%"}, {"measurement": "inhibition", "setting": "Homo sapiens", "result": 21, "unit": "%"}, {"measurement": "inhibition", "setting": "[20]", "result": "< 10", "unit": "%"}, {"measurement": "inhibition", "setting": "[21]", "result": "< 10", "unit": "%"}, {"measurement": "inhibition at 1 µM", "setting": "[22]", "result": "< 10", "unit": "%"}, {"measurement": "inhibition", "setting": "Rattus norvegicus [23]", "result": "< 10", "unit": "%"}, {"measurement": "inhibition", "setting": "Rattus norvegicus [24]", "result": "< 10", "unit": "%"}, {"measurement": "half-life at 1 µM", "setting": "in vitro", "result": 45.6, "unit": "min"}]}]}
